According to ChEMBL document CHEMBL4368865, “Synthesis, characterization and cytotoxic activity evaluation of ginsengdiol oxidation and nitrogen hybrid derivatives” (Medchemcomm, 2018):

Legend:
U-87 MG = assay: Cytotoxicity against human U87 cells assessed as inhibition of cell proliferation after 48 hrs by MTT assay; assay type: functional, cell-based, U-87MG ATCC
[1] = Cytotoxicity against human 8901 cells assessed as inhibition of cell proliferation after 48 hrs by MTT assay; assay type: functional, cell-based
A549 [2] = assay: Cytotoxicity against human A549 cells assessed as inhibition of cell proliferation after 48 hrs by MTT assay; assay type: functional, cell-based; conditions: A549, 48 h
HeLa = assay: Cytotoxicity against human HeLa cells assessed as inhibition of cell proliferation after 48 hrs by MTT assay; assay type: functional, cell-based
[3] = Cytotoxicity against human IOSE-144 cells assessed as inhibition of cell proliferation after 48 hrs by MTT assay; assay type: cell-based; conditions: IOSE-144, 48 h
MCF7 = assay: cells; assay type: functional, cell-based; conditions: Homo sapiens, MCF7, 48 h
Description: Cytotoxicity against human MCF7 cells assessed as inhibition of cell proliferation after 48 hrs by MTT assay

A549 [4] = assay: Potency index, ratio of 5-fluorouracil IC50 to test compound IC50 for human A549 cells; assay type: functional

Compound	IC50 (MCF7) [µM]	IC50 (U-87 MG) [µM]	IC50 [1] [µM]	IC50 (A549 [2]) [µM]	IC50 (HeLa) [µM]	IC50 [3] [µM]	Ratio IC50 (A549 [4])
CC(C)(O)CCC[C@@](C)(O)[C@H]1CC[C@]2(C)[C@@H]1[C@H](O)C[C@@H]1[C@@]3(C)CC[C@H](O)C(C)(C)[C@@H]3CC[C@]12C	–	25.1	46.5	27.9	19.6	> 100	–
COC(C)(C)CCC[C@@](C)(O)[C@H]1CC[C@]2(C)[C@@H]1[C@H](O)C[C@@H]1[C@@]3(C)CC[C@H](O)C(C)(C)[C@@H]3CC[C@]12C	44.6	19.5	38.5	29.3	29.4	> 100	–
CC(C)(O)CCC[C@@](C)(O)[C@H]1CC[C@]2(C)[C@@H]1[C@H](O)C[C@@H]1[C@@](C)(CC(=O)O)[C@H](C(C)(C)C(=O)O)CC[C@]12C	> 100	> 100	> 100	> 100	> 100	> 100	–
COC(C)(C)CCC[C@@](C)(O)[C@H]1CC[C@]2(C)[C@@H]1[C@H](O)C[C@@H]1[C@@](C)(CC(=O)O)[C@H](C(C)(C)C=O)CC[C@]12C	> 100	> 100	> 100	85	> 100	> 100	–
COC(C)(C)CCC[C@@](C)(O)[C@H]1CC[C@]2(C)[C@@H]1C(=O)C[C@@H]1[C@@]3(C)CC[C@H](O)C(C)(C)[C@@H]3CC[C@]12C	44.9	32.7	81.3	37.1	18	> 100	–
COC(C)(C)CCC[C@@](C)(O)[C@H]1CC[C@]2(C)[C@@H]1C(=O)C[C@@H]1[C@@]3(C)CCC(=O)C(C)(C)[C@@H]3CC[C@]12C	98.5	> 100	> 100	> 100	> 100	> 100	–
CC(C)(O)CCC[C@@](C)(O)[C@H]1CC[C@]2(C)[C@@H]1C(=O)C[C@@H]1[C@@]3(C)Cc4nccnc4C(C)(C)[C@@H]3CC[C@]12C	39.1	> 100	> 100	19.7	> 100	> 100	–

More lines, main results first:

IC50 (MCF7) [µM]	Compound	IC50 (U-87 MG) [µM]	IC50 [1] [µM]	IC50 (A549 [2]) [µM]	IC50 (HeLa) [µM]	IC50 [3] [µM]	Ratio IC50 (A549 [4])
65.1	CC(C)(O)CCC[C@@](C)(O)[C@H]1CC[C@]2(C)[C@@H]1C(=O)C[C@@H]1[C@@]3(C)CCC(=O)C(C)(C)[C@@H]3CC[C@]12C	> 100	> 100	90	> 100	> 100	–
> 100	CC1(C)CCC[C@](C)([C@H]2CC[C@]3(C)[C@@H]2[C@H](O)C[C@@H]2[C@@]4(C)Cc5cnoc5C(C)(C)[C@@H]4CC[C@]23C)O1	> 100	> 100	67.3	> 100	> 100	–
17.7	CC(C)(O)CCC[C@@](C)(O)[C@H]1CC[C@]2(C)[C@@H]1[C@H](O)C[C@@H]1[C@@]3(C)Cc4nccnc4C(C)(C)[C@@H]3CC[C@]12C	38.1	13.2	8.93	> 100	> 100	2.6
35.7	COC(C)(C)CCC[C@@](C)(O)[C@H]1CC[C@]2(C)[C@@H]1[C@H](O)C[C@@H]1[C@@]3(C)C=C(O)C(=O)C(C)(C)[C@@H]3CC[C@]12C	20.7	25.9	21.6	39	> 100	–
46.2	CC(C)(O)CCC[C@@](C)(O)[C@H]1CC[C@]2(C)[C@@H]1[C@H](O)C[C@@H]1[C@@]3(C)C=C(O)C(=O)C(C)(C)[C@@H]3CC[C@]12C	45.4	87.8	24.3	50.9	> 100	–
> 100	CC1(C)CCC[C@](C)([C@H]2CC[C@]3(C)[C@@H]2[C@H](O)C[C@@H]2[C@@]4(C)Cc5c([nH]c6ccccc56)C(C)(C)[C@@H]4CC[C@]23C)O1	> 100	> 100	> 100	> 100	> 100	–
> 100	CC1(C)CCC[C@](C)([C@H]2CC[C@]3(C)[C@@H]2[C@H](O)C[C@@H]2[C@@]4(C)Cc5nc6ccccc6nc5C(C)(C)[C@@H]4CC[C@]23C)O1	> 100	> 100	> 100	> 100	> 100	–
91.9	CC1(C)CCC[C@@](C)(O)[C@H]2CC[C@]3(C)[C@@H]2[C@@H](C[C@@H]2[C@@]4(C)CCC(=O)C(C)(C)[C@@H]4CC[C@]23C)O1	76.4	> 100	86.4	> 100	> 100	–
